The target of one test is IMP dehydrogenase (Saccharomyces cerevisiae, UniProt P50095). In kind it is biochemical.
Test [1] has as its target G. stearothermophilus tyrosyl-tRNA synthetase (Geobacillus stearothermophilus, UniProt P00952). Description: Tyrosyl-tRNA synthetase assay with tRNA recycling (AMP release coupled to NADH). As to conditions: for kcat: aminoacylation of tRNA^Tyr by the named tyrosine isomer, 10 mM MgATP.
Experimental: The pH of all stock solutions was adjusted to 7.0 prior to use. All kinetic assays were performed in 96 well microtiter plates at 25° C. using either 100 or 200 μl of assay mix per well. Under these conditions, the path lengths are 0.28 and 0.56 cm, respectively. The reaction rate for formation of the L-Tyr-tRNA^TYr product was determined by monitoring the increase in absorbance at 340 nm associated with the conversion of NAD^+ to NADH using a BioTek Synergy 4 plate reader (ε340=6220 M^−1 cm^−1).
Initial rates for each substrate concentration were determined from a linear fit of the data (A340 vs. time). Km and Vmax values were determined by fitting a plot of the initial rate vs. substrate concentration to the Michaelis-Menten equation, the same equations (1) and (2) above:
[formula] where vo is the initial rate of the reaction and [S] is the substrate concentration. kcat values were calculated from the equation: Vmax=kcat[E]

Experimental findings from US9777309B2, “High throughput assay for monitoring AMP production and aminoacyl-tRNA synthetase activity” (Board of Supervisors of Louisiana State University and …, priority 2014, dated 2017) are described below.

Molecules are shown by their SMILES.

Sequence of G. stearothermophilus tyrosyl-tRNA synthetase (P00952 whole entry): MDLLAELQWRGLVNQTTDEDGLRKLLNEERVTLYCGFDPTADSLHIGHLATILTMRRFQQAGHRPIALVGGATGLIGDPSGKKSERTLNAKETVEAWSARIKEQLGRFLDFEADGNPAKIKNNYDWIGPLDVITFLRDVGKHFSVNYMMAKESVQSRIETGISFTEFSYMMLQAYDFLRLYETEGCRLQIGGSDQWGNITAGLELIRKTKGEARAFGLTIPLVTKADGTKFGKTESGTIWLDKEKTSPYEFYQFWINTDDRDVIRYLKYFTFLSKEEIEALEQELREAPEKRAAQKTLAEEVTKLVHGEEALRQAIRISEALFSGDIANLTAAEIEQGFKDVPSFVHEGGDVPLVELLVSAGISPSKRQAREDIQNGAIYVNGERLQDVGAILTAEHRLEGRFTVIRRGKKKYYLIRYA
Sequence of IMP dehydrogenase (P50095 whole entry): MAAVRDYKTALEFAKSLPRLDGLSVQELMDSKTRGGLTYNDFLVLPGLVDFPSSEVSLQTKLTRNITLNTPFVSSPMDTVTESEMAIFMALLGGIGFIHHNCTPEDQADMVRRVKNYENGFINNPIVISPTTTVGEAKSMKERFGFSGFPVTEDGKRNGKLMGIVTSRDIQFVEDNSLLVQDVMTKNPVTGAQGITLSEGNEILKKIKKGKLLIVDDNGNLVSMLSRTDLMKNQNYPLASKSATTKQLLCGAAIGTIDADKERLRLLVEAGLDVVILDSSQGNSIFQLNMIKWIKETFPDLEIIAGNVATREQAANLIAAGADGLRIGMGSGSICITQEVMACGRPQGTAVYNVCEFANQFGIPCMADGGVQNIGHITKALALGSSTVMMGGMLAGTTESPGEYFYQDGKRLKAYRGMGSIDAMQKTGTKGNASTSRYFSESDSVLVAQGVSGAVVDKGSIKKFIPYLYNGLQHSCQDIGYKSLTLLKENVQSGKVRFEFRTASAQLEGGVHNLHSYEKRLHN

With `NC(=O)c1ccc[n+]([C@@H]2O[C@H](COP(=O)([O-])OP(=O)(O)OC[C@H]3O[C@@H](n4cnc5c(N)ncnc54)[C@H](O)[C@@H]3O)[C@@H](O)[C@H]2O)c1` [NAD^+], the Km on IMP dehydrogenase (50 mM TRIS pH 7.2, 25° C., other substrate at 5 mM, standard error in parenthesis) turned out to be 800 µM. At IMP dehydrogenase (S. cerevisiae vs Candida albicans enzyme), the “affinity higher than for the C. albicans IMP dehydrogenase homolog” value was determined as 4 fold.
For `N[C@@H](Cc1ccc(O)cc1)C(=O)O` [L-Tyrosine, L-tyrosine], in test [1], the kcat was 2.8 (±0.6) s^−1.
Turning to `N[C@H](Cc1ccc(O)cc1)C(=O)O` [D-Tyrosine, D-tyrosine], the kcat in test [1] was 0.32 (±0.08) s^−1. Moreover, the “Km^D-Tyr lower than Kd^D-Tyr determined by single turnover kinetics” value in test [1] (single turnover assay was in the absence of tRNA^Tyr) is 8 fold.

By Km is commonly meant the concentration of substrate that gives half-maximal velocity.
